For experiment [1], the target named is T1, CypA (Homo sapiens, UniProt P62937).
T1 construct: made in house
The experiment is described as follows: SPR binding of Vpr and Vpr peptides to immobilized CypA. The conditions noted are these: for binding to CypA in SPR sensorgrams (in words): peptides 0-8 μM over CM5 chip with 150 RU CypA (Figure 2). Here is the method: SPR [42-44] measurements were performed at 25°C on a Biacore T100 instrument (Biacore AB, Uppsala, Sweden) equipped with CM5 research-grade sensor chips. CypA was immobilized to 150, 180, 918 and 5003 RU, using standard amine-coupling chemistry. The reference flow cells were treated correspondingly except for CypA immobilization. The synthetic full length Vpr, as well as fragments and mutants thereof, were dissolved at four different concentrations in the running buffer (HBS-EP buffer pH 7.4; 10 mM HEPES, 150 mM NaCl, 3.4 mM EDTA and 0.005% surfacant). The samples were injected over the flow cells at a flow rate of 30 μl/min. Data were collected at 2.5 Hz during 60 s association and 180 s or 240 s dissociation phases, and were automatically corrected for bulk buffer effects and non-specific binding of Vpr peptides to the chip matrix. All SPR data was acquired from two individual series of experiments using four different analyte concentrations with a duplicate injection of one of the individual concentrations.
Affinity, association and dissociation rate constants were obtained from sensorgrams by the Biacore T100 evaluation software version 2.0.1 in accordance with the global curve fit model. Sensorgram data for the four different concentrations were fitted to several binding models including 1:1 (Langmuir) binding model (A+B ↔ AB), two-state reaction (conformational change) model (A+B ↔ AB ↔ AB*), heterogeneous ligand (HL) model (interaction one: A+B1 ↔ AB1; interaction two: A+B2 ↔ AB2) and bivalent analyte (BA) model (A+B ↔ AB; AB+B↔ABB). Kinetic constants were calculated for the best fitted model.

The target of experiment [2] is T1, CypA. The experiment is described as follows: Isothermal titration calorimetry of Vpr^75-90 binding to CypA. The conditions noted are these: ITC; mean ± S.E of two titrations; read-out: Ka (converted). The method, then: ITC was performed in a VP-ITC titration calorimeter (MicroCal Inc.). […] The mean of the heat from the last 5 injections was subtracted from the raw data to correct for experimental heat dilution. The binding isotherms were fitted to a one site binding model using the Origin v7 software (OriginLab). Chi-square minimization was performed iteratively to obtain the best-fit parameters.
(In ITC the heat of successive injections is recorded.)

Entries after “also recorded” stand apart in the source; their conditions may differ. Where a SMILES comes first, the peptide text is derived from it.

T1 sequence (P62937 whole entry): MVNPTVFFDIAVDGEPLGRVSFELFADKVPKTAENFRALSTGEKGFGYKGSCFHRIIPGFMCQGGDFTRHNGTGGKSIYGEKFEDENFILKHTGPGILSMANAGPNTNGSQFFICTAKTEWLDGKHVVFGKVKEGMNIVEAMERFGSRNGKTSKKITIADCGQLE

`CC[C@H](C)[C@H](NC(=O)[C@H](CCCNC(=N)N)NC(=O)[C@H](Cc1ccccc1)NC(=O)[C@H](Cc1c[nH]cn1)NC(=O)[C@@H](NC(=O)[C@@H](N)Cc1ccccc1)[C@@H](C)CC)C(=O)NCC(=O)N[C@@H](CS)C(=O)N[C@@H](CCCNC(=N)N)C(=O)N[C@@H](Cc1c[nH]cn1)C(=O)O` [Vpr^69-78] (H-FIHFRIGCRH-OH; N-terminus and C-terminus assumed): at CypA [1], the “binding to CypA in SPR sensorgrams (in words)” value was “interacted only weakly”.

Take `CC[C@H](C)[C@H](NC(=O)[C@H](CCCNC(=N)N)NC(=O)[C@H](CO)NC(=O)[C@H](Cc1c[nH]cn1)NC(=O)[C@H](CCCNC(=N)N)NC(=O)[C@H](CS)NC(=O)CN)C(=O)NCC(=O)N[C@H](C(=O)N[C@H](C(=O)O)[C@@H](C)O)C(C)C` [Vpr^75-84] (H-GCRHSRIGVT-OH; N-terminus and C-terminus assumed): the “binding to CypA in SPR sensorgrams (in words)” value on CypA [1] is “interacted only weakly; also recorded: fails to bind”.

On CypA [1], `CC[C@H](C)[C@H](NC(=O)CNC(=O)[C@@H](NC(=O)[C@H](C)NC(=O)[C@H](CO)NC(=O)[C@H](Cc1c[nH]cn1)NC(=O)[C@H](CCC(N)=O)NC(=O)[C@H](CS)NC(=O)CN)[C@@H](C)CC)C(=O)N[C@H](C(=O)N[C@@H](CCCNC(=N)N)C(=O)N[C@@H](CCC(N)=O)C(=O)N[C@@H](CCCNC(=N)N)C(=O)N[C@@H](CCCNC(=N)N)C(=O)N[C@@H](C)C(=O)N[C@@H](CCCNC(=N)N)C(=O)O)[C@@H](C)CC` [Vpr^75-90 (R76Q, V83I, R80A, T84I)] (H-GCQHSAIGIIRQRRAR-OH) gave a Kd of 2700 ± 1900 nM.

On to `CC[C@H](C)[C@H](NC(=O)CNC(=O)[C@@H](NC(=O)[C@H](CCCNC(=N)N)NC(=O)[C@H](CO)NC(=O)[C@H](Cc1c[nH]cn1)NC(=O)[C@H](CCC(N)=O)NC(=O)[C@H](CS)NC(=O)CN)[C@@H](C)CC)C(=O)N[C@H](C(=O)N[C@@H](CCCNC(=N)N)C(=O)N[C@@H](CCC(N)=O)C(=O)N[C@@H](CCCNC(=N)N)C(=O)N[C@@H](CCCNC(=N)N)C(=O)N[C@@H](C)C(=O)N[C@@H](CCCNC(=N)N)C(=O)O)[C@@H](C)CC` [Vpr^75-90 (R76Q, V83I, T84I)] (H-GCQHSRIGIIRQRRAR-OH), for which the Kd on CypA [1] came out at 4700 ± 2600 nM.

For `CC[C@H](C)[C@H](NC(=O)[C@H](CCCNC(=N)N)NC(=O)[C@H](CO)NC(=O)[C@H](Cc1c[nH]cn1)NC(=O)[C@H](CCCNC(=N)N)NC(=O)[C@H](CS)NC(=O)CN)C(=O)NCC(=O)N[C@H](C(=O)N[C@H](C(=O)N[C@@H](CCCNC(=N)N)C(=O)N[C@@H](CCC(N)=O)C(=O)N[C@@H](CCCNC(=N)N)C(=O)N[C@@H](CCCNC(=N)N)C(=O)N[C@@H](C)C(=O)N[C@@H](CCCNC(=N)N)C(=O)O)[C@@H](C)O)C(C)C` [Vpr^75-90], the Kd on CypA [2] was 76.9 nM.

Take `CC[C@H](C)[C@H](N)C(=O)NCC(=O)N[C@H](C(=O)N[C@H](C(=O)N[C@@H](CCCNC(=N)N)C(=O)N[C@@H](CCC(N)=O)C(=O)N[C@@H](CCCNC(=N)N)C(=O)N[C@@H](CCCNC(=N)N)C(=O)N[C@@H](C)C(=O)N[C@@H](CCCNC(=N)N)C(=O)O)[C@@H](C)O)C(C)C` [Vpr^81-90] (H-IGVTRQRRAR-OH; N-terminus and C-terminus assumed): the “binding to CypA in SPR sensorgrams (in words)” value at CypA [1] is on record as “interacted only weakly”.

As for `C[C@H](NC(=O)CNC(=O)[C@H](CC(N)=O)NC(=O)[C@H](CCCNC(=N)N)NC(=O)[C@H](C)NC(=O)[C@H](CCCNC(=N)N)NC(=O)[C@@H](N)CCCNC(=N)N)C(=O)N[C@@H](CO)C(=O)N[C@@H](CCCNC(=N)N)C(=O)N[C@@H](CO)C(=O)O` [Vpr^87-96] (H-RRARNGASRS-OH; N-terminus and C-terminus assumed), the “binding to CypA in SPR sensorgrams (in words)” value at CypA [1] is on record as “interacted only weakly”.

With “Vpr^30-40: N-terminal peptide containing the N-terminal binding region of Vpr to CypA (AVRHFPRIWLH)”, the “binding to CypA in SPR sensorgrams, comparison (in words)” value with CypA [1] (analyte 1-8 μM, chip with 180 RU CypA (Figure 1B, C)) was “lower affinity”.

The record behind these values is publication PMC3269379, “The Host-Pathogen interaction of human cyclophilin A and HIV-1 Vpr requires specific N-terminal and novel C-terminal domains” (BMC Structural Biology, 2011).
